{"source": "paper PMC10092221", "about": "(Journal of Clinical Pharmacology, 2022)", "origin": "cited, not measured here", "settings": "itraconazole 200 mg daily; cited from earlier work", "data": [{"smiles": "Cc1nnc2n1-c1ccc(Cl)cc1C(c1ccccc1Cl)=NC2", "note": "[triazolam]", "values": [{"measurement": "Increase in exposure with itraconazole regimen", "result": 27, "unit": "fold"}]}]}
